# Measurements: US20190270778A1, “Cyclic Peptides As C5a Receptor Antagonists” (priority 2016, published 2019)
# Numbered stars: 1 amine (or outer) side, 2 acyl side, 3 side chain; on linkers, the order of the positions; unused ones are H or OH. Bridge positions count the residues as written; N and C are the ends. Square brackets hold non-standard residues; d marks the D form. Peptide text beside a SMILES is read from it. * marks the point of attachment. X2 = O=C([C@@H](C[C@H]1CC[C@@H](O)CC1)N[*:1])[*:2]; X1 = CN(CC(=O)O)[C@@H](Cc1ccccc1)C(=O)*; Hyp = O=C(O)[C@@H]1C[C@@H](O)CN1; Orn = NCCC[C@H](N)C(=O)O
# Tests used:
# C5a receptor [1] = biological target: T1, C5a receptor (Homo sapiens, UniProt P21730); experiment: HWB oxidative burst assay (C5a-induced, luminol chemiluminescence); format: cell-based
# T1 construct: endogenous in cells; host or cells: leukocytes/granulocytes in freshly drawn whole blood of healthy volunteers
# T1 sequence (P21730 1-350): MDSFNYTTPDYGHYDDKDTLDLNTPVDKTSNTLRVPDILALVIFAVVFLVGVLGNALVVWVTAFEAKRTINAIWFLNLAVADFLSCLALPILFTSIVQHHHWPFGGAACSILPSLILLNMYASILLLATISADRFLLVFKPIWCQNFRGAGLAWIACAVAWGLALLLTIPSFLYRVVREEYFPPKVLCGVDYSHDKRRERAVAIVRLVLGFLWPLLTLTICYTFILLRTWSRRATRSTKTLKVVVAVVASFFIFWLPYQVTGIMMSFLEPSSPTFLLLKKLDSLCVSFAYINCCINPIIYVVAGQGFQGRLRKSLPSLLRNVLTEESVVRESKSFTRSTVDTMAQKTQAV
# Protocol: Inhibition of oxidative burst activity was determined in HWB primed with TNF-α and stimulated with C5a. C5a-induced oxidative burst response (generation of reactive oxygen species) was then detected in the presence of luminol as a chemiluminescent signal.
# On the day of assay, HWB was collected from a healthy, non-medicated volunteer into tubes containing 3.8% sodium citrate (final sodium citrate concentration in HWB is 0.38%) and stored in a 37° C. water bath until use (no longer than 60 minutes).
# To start the assay, TNF-α was added to HWB to a final concentration of 1.0 nM and 68 μL of this HWB/TNF-α mix was transferred to each well of a 384-well white Optiplate (assay plate). 4.0 μL of various concentrations of test agent were then added to the assay plate and mixed twice gently by aspirating up and down. The assay plate was then placed on a thermoshaker (JITTERBUG-4) and incubated at 37° C. (without shaking). After 60 minutes, C5a (Complement Technology) prepared in luminol (Sigma) was added to the assay plate and mixed twice gently by aspirating up and down. The plate was then placed in a ViewLux 1430 Microplate Imager (Perkin Elmer). After 5 minutes, oxidative burst activity was determined with the ViewLux by measuring luminol-enhanced whole blood chemiluminescence. Final assay conditions were 1.5 mM HEPES pH 7.5, 0.015% BSA, 15% HBSS, 0.85 ng/mL TNFα, 1.0 mM Luminol, C5a 20 nM, 76.5% HWB, 0.15% DMSO and various concentrations of test agent.
# The percent (%) effect at each concentration of test agent was then calculated based on and relative to the amount of signal that was produced by positive (i.e. full inhibition of C5a induced oxidative burst) and negative (i.e. completely uninhibited C5a induced oxidative burst) control wells contained within each assay plate. The concentration and % effect values for test agents were plotted and the concentration of test agent required for 50% effect (IC50) was determined with a four-parameter logistic dose response equation (BioBook; IDBS). Kb (nM) was then calculated (BioBook; IDBS) using the equation described by Leff and Dougal (TIPS 1993 14:110-112).
# C5a receptor [2] = biological target: T1, C5a receptor; experiment: HWB CD11b expression assay (C5a-challenged granulocytes, flow cytometry); format: cell-based
# Protocol: HWB was collected from healthy, non-medicated volunteers into BD Vacutainer® blood collection tubes with K2EDTA as an anticoagulant. HWB was aliquoted (85 μL/well) in 96-well, deep-well, V-bottom plates and incubated at 37° C. for 30 minutes. Test compounds (5 μL/well) were added to HWB and incubated at 37° C. for 30 minutes. Anti-human CD11b antibody conjugated with APC (BD Biosciences) was added to HWB (5 μL/well) and incubated at 37° C. for additional 30 minutes. HWB was then challenged with human C5a (final 1 nM) for 30 minutes at 37° C. Samples were treated with warm 1× Lyse/Fix buffer (BD Biosciences) to terminate activation and further incubated at 37° C. for 20 minutes to lyse red blood cells. Assay plates were centrifuged at 300×g for 5 minutes, supernatant was aspirated, and cells were washed once with PBS containing 0.5% FBS. Washed cells were resuspended in PBS containing 0.5% FBS and subjected to flow cytometric analysis using an LSRFortessa equipped with a HTS plate loader (BD Biosciences). The granulocyte population was gated for analysis of MF of CD11b staining using FACSDiva version 6.2 (BD Biosciences). Data from 11 compound concentrations (singlicate at each concentration) was normalized as a percentage of control based on the formula:
# % of Control=100×(A−B)/(C−B)
# where A is MF from wells containing test compound and C5a, B is MF from wells without C5a (background MF from unstimulated samples) and C is MF from wells containing only C5a (maximum MF). Inhibition curves and IC50 values (test compound concentrations which produce 50% inhibition) were determined using the Prism version 5 software (GraphPad). HWB was also stimulated with 11 different concentrations of C5a to construct a responsive curve and to obtain EC50 value (the concentration of C5a that gives half-maximal response) and curve slope using the Prism version 5 software. Kb (nM) was then calculated using the equation described by Leff and Dougal (TIPS 1993 14:110-112).
SMILES,Kb (C5a receptor [1]) [nM],Kb (C5a receptor [2]) [nM]
"CN(CC(=O)O)[C@@H](Cc1ccccc1)C(=O)N[C@H]1CCCNC(=O)[C@H](CCCNC(=N)N)NC(=O)[C@H](Cc2c[nH]c3ccccc23)NC(=O)[C@@H](C[C@H]2CC[C@@H](O)CC2)NC(=O)[C@@H]2C[C@@H](O)CN2C1=O [Example 11, N—((S)-1-(((3R,6S,9S,15S,19R,20aS)-6-((1H-indol-3-yl)methyl)-9-(3-guanidinopropyl)-19-hydroxy-3-(((1s,4S)-4-hydroxycyclohexyl)methyl)-1,4,7,10,16-pentaoxoicosahydropyrrolo[1,2-a][1,4,7,10,13]pentaazacyclooctadecin-15-yl)amino)-1-oxo-3-phenylpropan-2-yl)-N-methylglycine] (X1-[Orn][Hyp][X2]WR; lactam 1-C)",1.2,
"N=C(N)NCCC[C@@H]1NC(=O)[C@H](Cc2c[nH]c3ccccc23)NC(=O)[C@@H](C[C@H]2CC[C@@H](O)CC2)NC(=O)[C@@H]2C[C@@H](O)CN2C(=O)[C@@H](NC(=O)[C@H](Cc2ccccc2)NCC(=O)O)CCCNC1=O [Example 1, ((S)-1-(((3R,6S,9S,15S,19R,20aS)-6-((1H-indol-3-yl)methyl)-9-(3-guanidinopropyl)-19-hydroxy-3-(((1s,4S)-4-hydroxycyclohexyl)methyl)-1,4,7,10,16-pentaoxoicosahydropyrrolo[1,2-a][1,4,7,10,13]pentaazacyclooctadecin-15-yl)amino)-1-oxo-3-phenylpropan-2-yl)glycine]",1.6,13.1
"N=C(N)NCCC[C@@H]1NC(=O)[C@H](Cc2c[nH]c3ccccc23)NC(=O)[C@@H](C[C@H]2CC[C@@H](O)CC2)NC(=O)[C@@H]2C[C@H](N)CN2C(=O)[C@@H](NC(=O)[C@H](Cc2ccccc2)NCC(=O)O)CCCNC1=O [Example 7, ((S)-1-(((3R,6S,9S,15S,19S,20aS)-6-((1H-indol-3-yl)methyl)-19-amino-9-(3-guanidinopropyl)-3-(((1s,4S)-4-hydroxycyclohexyl)methyl)-1,4,7,10,16-pentaoxoicosahydropyrrolo[1,2-a][1,4,7,10,13]pentaazacyclooctadecin-15-yl)amino)-1-oxo-3-phenylpropan-2-yl)glycine]",1.8,10.9
"COc1ccc2[nH]cc(C[C@@H]3NC(=O)[C@@H](C[C@H]4CC[C@@H](O)CC4)NC(=O)[C@@H]4C[C@@H](O)CN4C(=O)[C@@H](NC(=O)[C@H](Cc4ccccc4)NCC(=O)O)CCCNC(=O)[C@H](CCCNC(=N)N)NC3=O)c2c1 [Example 4, ((S)-1-(((3R,6S,9S,15S,19R,20aS)-9-(3-guanidinopropyl)-19-hydroxy-3-(((1s,4S)-4-hydroxycyclohexyl)methyl)-6-((5-methoxy-1H-indol-3-yl)methyl)-1,4,7,10,16-pentaoxoicosahydropyrrolo[1,2-a][1,4,7,10,13]pentaazacyclooctadecin-15-yl)amino)-1-oxo-3-phenylpropan-2-yl)glycine]",3,53.8
"N=C(N)NCCC[C@@H]1NC(=O)[C@H](Cc2c[nH]c3ccccc23)NC(=O)[C@@H](C[C@H]2CC[C@@H](O)CC2)NC(=O)[C@@H]2C[C@@H](N)CN2C(=O)[C@@H](NC(=O)[C@H](Cc2ccccc2)NCC(=O)O)CCCNC1=O [Example 8, ((S)-1-(((3R,6S,9S,15S,19R,20aS)-6-((1H-indol-3-yl)methyl)-19-amino-9-(3-guanidinopropyl)-3-(((1s,4S)-4-hydroxycyclohexyl)methyl)-1,4,7,10,16-pentaoxoicosahydropyrrolo[1,2-a][1,4,7,10,13]pentaazacyclooctadecin-15-yl)amino)-1-oxo-3-phenylpropan-2-yl)glycine]",4,19.8
"COc1ccc2c(C[C@@H]3NC(=O)[C@@H](C[C@H]4CC[C@@H](O)CC4)NC(=O)[C@@H]4C[C@@H](O)CN4C(=O)[C@@H](NC(=O)[C@H](Cc4ccccc4)NCC(=O)O)CCCNC(=O)[C@H](CCCNC(=N)N)NC3=O)c[nH]c2c1 [Example 15, ((S)-1-(((3R,6S,9S,15S,19R,20aS)-9-(3-guanidinopropyl)-19-hydroxy-3-(((1s,4S)-4-hydroxycyclohexyl)methyl)-6-((6-methoxy-1H-indol-3-yl)methyl)-1,4,7,10,16-pentaoxoicosahydropyrrolo[1,2-a][1,4,7,10,13]pentaazacyclooctadecin-15-yl)amino)-1-oxo-3-phenylpropan-2-yl)glycine]",2.2,
"N=C(N)NCCC[C@@H]1NC(=O)[C@H](Cc2n[nH]c3ccccc23)NC(=O)[C@@H](C[C@H]2CC[C@@H](O)CC2)NC(=O)[C@@H]2C[C@@H](O)CN2C(=O)[C@@H](NC(=O)[C@H](Cc2ccccc2)NCC(=O)O)CCCNC1=O [Example 16, ((S)-1-(((31R,6S,9S,15S,19R,20aS)-6-((1H-indazol-3-yl)methyl)-9-(3-guanidinopropyl)-19-hydroxy-3-(((1s,4S)-4-hydroxycyclohexyl)methyl)-1,4,7,10,16-pentaoxoicosahydropyrrolo[1,2-a][1,4,7,10,13]pentaazacyclooctadecin-15-yl)amino)-1-oxo-3-phenylpropan-2-yl)glycine]",6.5,75.2
"N=C(N)NCCC[C@@H]1NC(=O)[C@H](Cc2c[nH]c3ccccc23)NC(=O)[C@@H](C[C@H]2CC[C@@H](O)CC2)NC(=O)[C@@H]2C[C@@H](NCC(=O)O)CN2C(=O)[C@@H](NC(=O)[C@H](Cc2ccccc2)NCC(=O)O)CCCNC1=O [Example 14, ((31R,6S,9S,15S,19R,20aS)-6-((1H-indol-3-yl)methyl)-15-((S)-2-((carboxymethyl)amino)-3-phenylpropanamido)-9-(3-guanidinopropyl)-3-(((1s,4S)-4-hydroxycyclohexyl)methyl)-1,4,7,10,16-pentaoxoicosahydropyrrolo[1,2-a][1,4,7,10,13]pentaazacyclooctadecin-19-yl)glycine]",1.7,
"[2H]c1cc([2H])cc(C[C@H](NCC(=O)O)C(=O)N[C@H]2CCCNC(=O)[C@H](CCCNC(=N)N)NC(=O)[C@H](Cc3c[nH]c4ccccc34)NC(=O)[C@@H](C[C@H]3CC[C@@H](O)CC3)NC(=O)[C@@H]3C[C@@H](O)CN3C2=O)c1 [Example 13, ((S)-1-(((3R,6S,9S,15S,19R,20aS)-6-((1H-indol-3-yl)methyl)-9-(3-guanidinopropyl)-19-hydroxy-3-(((1s,4S)-4-hydroxycyclohexyl)methyl)-1,4,7,10,16-pentaoxoicosahydropyrrolo[1,2-a][1,4,7,10,13]pentaazacyclooctadecin-15-yl)amino)-1-oxo-3-(3,5-dideuterophenyl)propan-2-yl)glycine]",1.3,
